Measured values as given in ChEMBL document CHEMBL1127006, “QSAR study of benzoquinolinones as inhibitors of human type 1 5--reductase” (Bioorg Med Chem Lett, 1993).

Target: T1, 3-oxo-5-alpha-steroid 4-dehydrogenase 1 (Homo sapiens, UniProt P18405)
T1 sequence (P18405 whole entry): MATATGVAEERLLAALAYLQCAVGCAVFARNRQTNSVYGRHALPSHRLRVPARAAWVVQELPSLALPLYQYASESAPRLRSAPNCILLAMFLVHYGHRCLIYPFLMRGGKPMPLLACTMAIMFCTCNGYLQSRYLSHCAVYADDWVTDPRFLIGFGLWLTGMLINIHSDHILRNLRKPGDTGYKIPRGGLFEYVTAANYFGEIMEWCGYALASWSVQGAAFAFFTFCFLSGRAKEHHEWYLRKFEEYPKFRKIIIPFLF
Assay: In vitro inhibitory concentration required to inhibit Steroid 5-alpha-reductase type 1 in cultured Hs 68 human foreskin fibroblast cells
Assay type: cell-based
Details: read-out: Log 1/IC50 (converted)

SMILES | IC50 [nM]
CN1C(=O)CCC2(C)c3ccccc3CCC12 (stereo unspecified) | 1000
CN1C(=O)CCC2=C1CCc1cc(Br)ccc12 | 60.3
CN1C(=O)CCC2c3ccc(Cl)cc3CCC21 (stereo unspecified) | 7.94
CN1C(=O)CCC2c3ccc(F)cc3CCC21 (stereo unspecified) | 34.7
CN1C(=O)CCC2=C1CCc1cc(F)ccc12 | 151
CN1C(=O)CCC2=C1CCc1cc(Cl)ccc12 | 174
CN1C(=O)CCC2c3ccc(C(F)(F)F)cc3CCC21 (stereo unspecified) | 89.1
CN1C(=O)CCC2c3ccc(I)cc3CCC21 (stereo unspecified) | 79.4
Cc1ccc2c(c1)CCC1=C2CCC(=O)N1C | 32.4
CN1C(=O)CCC2c3ccc(Br)cc3CCC21 (stereo unspecified) | 34.7

Results, then the compound that gave them:

IC50 [nM] | SMILES
32.4 | Cc1ccc2c(c1)CCC1C2CCC(=O)N1C (stereo unspecified)
562 | CN1C(=O)CCC2c3ccccc3CCC21 (stereo unspecified)
32.4 | CN1C(=O)CCC2(C)c3ccc(Cl)cc3CCC12 (stereo unspecified)
115 | COc1ccc2c(c1)CCC1C2CCC(=O)N1C (stereo unspecified)
115 | CN1C(=O)CCC2(C)c3ccc(F)cc3CCC12 (stereo unspecified)
1000 | CN1C(=O)CCC2=C1CCc1ccccc12
